Experimental findings from ChEMBL document CHEMBL1125390, “Design and synthesis of novel 6,7-imidazotetrahydroquinoline inhibitors of thymidylate synthase using iterative protein crystal structure analysis” (J Med Chem, 1992) are described below.

The subject of one assay is CCRF-CEM. Kind of assay: Compound was tested for the inhibition of human CCRF-CEM leukemia cell growth.
For assay [1], the system named is GC3M(-). As to the kind of experiment: Compound was tested for the inhibition of thymidine kinase deficient human adenocarcinoma GC3M(-) cell growth.
The next assay relates to L1210. Kind of assay: Compound was tested for the inhibition of mouse L1210 leukemia cell growth.
Another assay deals with Thymidylate synthase (Escherichia coli, UniProt C3SWJ7).
Assay [2] deals with GC3M(-). Kind of assay: Compound was evaluated for cellular growth inhibition in thymidine kinase deficient human adenocarcinoma GC3M(-) cell line.

Bounds are passed on as bounds.

Chain of Thymidylate synthase (C3SWJ7 whole entry): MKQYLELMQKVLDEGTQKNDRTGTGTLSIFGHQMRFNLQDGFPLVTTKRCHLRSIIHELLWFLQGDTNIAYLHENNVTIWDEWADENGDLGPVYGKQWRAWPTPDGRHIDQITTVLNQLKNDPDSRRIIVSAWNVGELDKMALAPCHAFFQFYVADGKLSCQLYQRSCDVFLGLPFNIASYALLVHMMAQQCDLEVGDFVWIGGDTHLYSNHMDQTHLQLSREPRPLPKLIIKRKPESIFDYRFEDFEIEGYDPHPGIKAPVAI
Description for Thymidylate synthase: Inhibition of Escherichia coli Thymidylate synthase (TS)

In general, IC50 refers to the point on the concentration scale where inhibition reaches its midpoint. Usually Ki stands for a measure of affinity in units of concentration, obtained from inhibition or displacement. Read a low Ki as higher affinity. For the molecule `COc1ccc(S(=O)(=O)c2ccc(CN3CCCc4cc5c(cc43)nc(C)n5C)cc2)cc1`, the IC50 in the assay on CCRF-CEM was 1.8 µM; with GC3M(-) [1], more than 5 µM; with L1210, 1.05 µM. In addition, the affinity at Thymidylate synthase corresponds to a Ki of 5.2 µM.

Consider `Nc1nc2cc3c(cc2[nH]1)N(Cc1ccc(S(=O)(=O)N2CCNCC2)cc1)CCC3`, for which the figures for the concentration for half-maximal inhibition (IC50) in the assay on GC3M(-) [1] and with L1210 were more than 50 µM and 2 µM, respectively.

With `Nc1nc2cc3c(cc2[nH]1)CCCC3Sc1ccc(S(=O)(=O)c2ccccc2)cc1` (configuration not stated), the IC50 with CCRF-CEM was more than 10 µM; with GC3M(-) [1], more than 10 µM; with L1210 it was 7.5 µM.

As to `COc1ccc(S(=O)(=O)c2ccc(CN3CCCc4cc5[nH]c(N)nc5cc43)cc2)cc1`, the IC50 with CCRF-CEM stood at 5.1 µM; in the assay with GC3M(-) [1], 9 µM; in the assay with L1210 it was 2.6 µM.

Consider `COc1ccc(S(=O)(=O)c2ccc(CN3CCCc4cc5nc(C)[nH]c5cc43)cc2)cc1`, for which the results for the IC50 in the assay with CCRF-CEM, with GC3M(-) [1] and in the assay with L1210 were 8 µM, 4.1 µM and 2.8 µM, respectively. Moreover, the Ki at Thymidylate synthase was found to be 1.3 µM.

With `CNc1nc2cc3c(cc2[nH]1)N(Cc1ccc(S(=O)(=O)c2ccccc2)cc1)CCC3`, the IC50 with CCRF-CEM was 3.3 µM; in the assay on GC3M(-) [1], more than 5 µM; with L1210, 3 µM. The molecule also had a Ki at Thymidylate synthase of 8.5 µM.

For `COc1ccc(S(=O)(=O)c2ccc(CN3CCCc4cc5c(cc43)nc(N)n5C)cc2)cc1`, the half-inhibitory concentration (IC50) is 0.9 µM in the assay with CCRF-CEM, 3 µM with GC3M(-) [1] and 0.5 µM in the assay with L1210. On Thymidylate synthase, this molecule had a Ki of 0.5 µM.

Consider `Nc1nc2cc3c(cc2[nH]1)N(Cc1ccc(S(=O)(=O)N2CCOCC2)cc1)CCC3`, for which the figures for the IC50 in the assay with CCRF-CEM, in the assay on GC3M(-) [1] and in the assay with L1210 were 4 µM, 8.6 µM and 4 µM, respectively.

In the assay with GC3M(-) [1], `Nc1nc2cc3c(cc2[nH]1)N(Cc1ccc(S(=O)(=O)c2ccccc2)cc1)CCC3` returned an IC50 of more than 5 µM.

Molecule `O=S(=O)(c1ccc(CN2CCCc3cc4[nH]cnc4cc32)cc1)N1CCNCC1` came in with an IC50 with GC3M(-) [1] of 43 µM.

As for `Nc1nc2cc3c(cc2[nH]1)N(Cc1ccc(S(=O)(=O)c2ccc(O)cc2)cc1)CCC3`, the IC50 in the assay on CCRF-CEM was 22 µM; in the assay with GC3M(-) [2] it was more than 50 µM; in the assay on L1210, 12 µM.

Turning to `Nc1nc2cc3c(cc2[nH]1)N(Cc1ccc2cc(CO)ccc2c1)CCC3`, the IC50 is more than 5 µM with CCRF-CEM, more than 5 µM in the assay on GC3M(-) [1] and 3.1 µM with L1210.

Turning to `CSc1nc2cc3c(cc2[nH]1)N(Cc1ccc(S(=O)(=O)c2ccccc2)cc1)CCC3`, the IC50 in the assay on CCRF-CEM, in the assay on GC3M(-) [1] and in the assay with L1210 was more than 10 µM in each case. This molecule yielded a Ki on Thymidylate synthase of more than 3 µM.

`Nc1nc2cc3c(cc2[nH]1)N(Cc1ccc(C(=O)NC(CCC(=O)O)C(=O)O)cc1)CCC3` (configuration not stated): the IC50 in the assay on CCRF-CEM was 40 µM; in the assay on GC3M(-) [2] it was more than 50 µM; in the assay with L1210 it was 20 µM.
